Assay results from publication PMC6835510, “Magnificamide, a β-Defensin-Like Peptide from the Mucus of the Sea Anemone Heteractis magnifica, Is a Strong Inhibitor of Mammalian α-Amylases” (Marine Drugs, 2019).
Bridge positions count the residues as written; N and C are the ends. Ends that are not written are not given here.

Columns and labels:
[1] = tested on: 18 subtypes of voltage-gated potassium and voltage-gated sodium channels; test: Electrophysiological screening, overall; type: cell-based; settings: 10 µM, Xenopus laevis oocytes
Excerpt: (§1) For the expression of Nav channels (mammalian rNav1.2, rNav1.4, hNav1.5, mNav1.6 and hNav1.8 channels; the insect channel BgNav1 from Blattella germanica; and the auxiliary subunits rβ1, hβ1, and TipE) and Kv channels (mammalian rKv1.1, rKv1.2, hKv1.3, rKv1.4, rKv1.5, rKv1.6, rKv2.1, hKv3.1, rKv4.2, hKv10.1, and hERG; and Drosophila Shaker’s IR) in Xenopus laevis oocytes; the linearized plasmids were transcribed using the T7 or SP6 mMESSAGE-mMACHINE transcription kit (Ambion, Carlsbad, CA, USA). The harvesting of stage V–VI oocytes from anesthetized female Xenopus laevis frog was previously described. Oocytes were injected with 50 nL of cRNA at a concentration of 1 ng/nL using a microinjector (Drummond Scientific, Broomall, PA, USA). The oocytes were incubated in a solution containing 96-mM NaCl, 2-mM KCl, 1.8-mM CaCl2, 2-mM MgCl2, and 5-mM HEPES (pH 7.4), supplemented with 50 mg/L gentamycin sulfate.
Two-electrode voltage-clamp recordings were performed at room temperature (18–22 °C) using a Geneclamp 500 amplifier (Molecular Devices, Downingtown, PA, USA) controlled by a pClamp data acquisition system (Axon Instruments, Union City, CA, USA). Whole cell currents from oocytes were recorded 1–4 days after injection. The bath solution’s composition was 96-mM NaCl, 2-mM KCl, 1.8-mM CaCl2, 2-mM MgCl2, and 5-mM HEPES (pH 7.4). Toxins were applied directly to the bath. Resistances of both electrodes were kept between 0.8 and 1.5 MΩ. The elicited currents were sampled at 20 kHz (Nav) or 2 kHz (Kv), filtered at 2 kHz (Nav) or 0.5 kHz (Kv) using a four-pole low-pass Bessel filter. Leak subtraction was performed using a -P/4 protocol. […] For the electrophysiological analysis, a number of protocols were applied from a holding potential of −90 mV with a start-to-start interval of 0.2 Hz. Kv1.1–Kv1.6 and Shaker currents were evoked by 250-ms depolarizations to 0 mV followed by a 250 ms pulse to −50 mV from a holding potential of −90 mV. […] All data were analyzed using pClamp Clampfit 10.0 (Molecular Devices, Downingtown, PA, USA) and Origin 7.5 software (Originlab, Northampton, MA, USA).

[2] = tested on: Pseudomonas aeruginosa ATCC 27853; test: Antimicrobial activity, agar dilution method; type: cell-based; settings: 1, 5, 10, 20 µM; 100 µL in 6 mm agar wells; 18 h, 37 °C; clear zone; three independent assays
Method: (§2) The antimicrobial activity of r-magnificamide was tested against Gram-positive (Staphylococcus aureus ATCC 21027 and Bacillus subtilis ATCC6633), Gram-negative bacteria (Escherichia coli VKPM B-7935 and Pseudomonas aeruginosa ATCC 27853), and the fungus Candida albicans KMM 455 by the agar dilution method. Microbial strains were taken from the American Type Culture Collection (ATCC), Russian National Collection of Industrial Microorganisms (VKPM), and Collection of Marine Microorganisms (KMM) (Pacific Institute of Bioorganic Chemistry FEB RAS). To obtain a microbial lawn, 0.1 mL of a cell suspension (0.5 × 10^8 cells/mL) was uniformly distributed on agar surface in Petri dishes (15 g/L tryptic soy broth, 2 g/L bacto yeast extract, 1 g/L glucose, and 20 g/L agar for bacteria; for fungi 10 g/L of glucose was added). Wells with a diameter of 6 mm were punched into the agar and filled with 100 µL of the peptide solution at concentrations 1, 5, 10, and 20 µM. The plates were then incubated for 18 h at 37 °C for bacteria, and at 30 °C for the fungus. Minimum inhibitory concentration was determined by measuring the clear zone of inhibition around each well. All assays were performed independently three times.

Candida albicans KMM 455 = test: Antimicrobial activity, agar dilution method; type: cell-based; settings: 1, 5, 10, 20 µM; 100 µL in 6 mm agar wells; 18 h, 30 °C; clear zone; three independent assays
Method: as §2

[3] = tested on: Bacillus subtilis ATCC6633; test: Antimicrobial activity, agar dilution method; type: cell-based; settings: 1, 5, 10, 20 µM; 100 µL in 6 mm agar wells; 18 h, 37 °C; clear zone; three independent assays
Method: as §2

[4] = tested on: Staphylococcus aureus ATCC 21027; test: Antimicrobial activity, agar dilution method; type: cell-based; settings: 1, 5, 10, 20 µM; 100 µL in 6 mm agar wells; 18 h, 37 °C; clear zone; three independent assays
Method: as §2

[5] = tested on: Escherichia coli VKPM B-7935; test: Antimicrobial activity, agar dilution method; type: cell-based; settings: 1, 5, 10, 20 µM; 100 µL in 6 mm agar wells; 18 h, 37 °C; clear zone; three independent assays
Method: as §2

[6] = tested on: fungi, Gram-positive or Gram-negative bacteria; test: Antimicrobial screening, overall; type: cell-based; settings: 1, 5, 10, 20 µM
Method: as §2

BgNav1 = test: Two-electrode voltage-clamp; type: cell-based, Blattella germanica; settings: 10 µM; insect channel; Xenopus laevis oocytes; 18–22 °C
Excerpt: as §1
Two-electrode voltage-clamp recordings were performed at room temperature (18–22 °C) using a Geneclamp 500 amplifier (Molecular Devices, Downingtown, PA, USA) controlled by a pClamp data acquisition system (Axon Instruments, Union City, CA, USA). Whole cell currents from oocytes were recorded 1–4 days after injection. […] All data were analyzed using pClamp Clampfit 10.0 (Molecular Devices, Downingtown, PA, USA) and Origin 7.5 software (Originlab, Northampton, MA, USA).

[7] = listed as recombinant analog of magnificamide

Sequence: SEGTSCYIYHGVYGICKAKCAEDMKAMAGMGVCEGDLCCYKTPW (disulfide 6-38, 16-33, 20-39) [r-magnificamide]
- Ion channel modulating activity, overall ([1]; listed as r-Magnificamide): did not reveal ion channel modulating activity
- Ion channel modulating activity, overall [1, 7]: does not show antimicrobial or channel modulating activities
- Antimicrobial activity, P. aeruginosa [2]: Not active
- Antimicrobial activity, C. albicans (Candida albicans KMM 455): Not active
- Antimicrobial activity, B. subtilis [3]: Not active
- Antimicrobial activity, S. aureus [4]: Not active
- Antimicrobial activity, E. coli [5]: Not active
- Antimicrobial activity, overall [6]: did not reveal activity against fungi, Gram-positive or Gram-negative bacteria
- Antimicrobial activity, overall [6, 7]: does not show antimicrobial or channel modulating activities
- Channel modulating activity, BgNav1 (BgNav1): Not active
